Results published in PubChem BioAssay (NCI).
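How tested: cells in 96-well plates exposed to compound for 48 hours at five concentrations. Abbreviation: GI50, concentration required for 50% inhibition of growth. Definition used: TGI = concentration required for complete inhibition of growth.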

Assays:
Assay in all cases: inhibition of tumour cell growth, NCI panel, 48 h
CCRF-CEM leukemia = system: CCRF-CEM leukemia
MDA-MB-435 = system: MDA-MB-435
SN12C renal = system: SN12C renal
SNB-19 CNS = system: SNB-19 CNS
MCF7 breast = system: MCF7 breast
NCI-H460 lung = system: NCI-H460 lung
BT-549 breast = system: BT-549 breast
MDA-MB-231 breast = system: MDA-MB-231 breast
SF-295 CNS = system: SF-295 CNS
T-47D breast = system: T-47D breast
UO-31 renal = system: UO-31 renal
HOP-92 NSCLC = system: HOP-92 NSCLC
COLO 205 colon = system: COLO 205 colon
HT29 colon = system: HT29 colon
U251 CNS = system: U251 CNS
HCT-15 colon = system: HCT-15 colon
OVCAR-3 ovarian = system: OVCAR-3 ovarian
A549 NSCLC = system: A549 NSCLC
OVCAR-4 ovarian = system: OVCAR-4 ovarian
PC-3 prostate = system: PC-3 prostate
NCI-H23 lung = system: NCI-H23 lung
M14 melanoma = system: M14 melanoma
NCI/ADR-RES ovarian = system: NCI/ADR-RES ovarian
EKVX NSCLC = system: EKVX NSCLC
NCI-H522 lung = system: NCI-H522 lung
SK-MEL-2 melanoma = system: SK-MEL-2 melanoma
KM12 colon = system: KM12 colon
TK-10 renal = system: TK-10 renal
HOP-62 NSCLC = system: HOP-62 NSCLC
K-562 leukemia = system: K-562 leukemia
LOX IMVI melanoma = system: LOX IMVI melanoma
CAKI-1 renal = system: CAKI-1 renal
SNB-75 CNS = system: SNB-75 CNS
RPMI-8226 leukemia = system: RPMI-8226 leukemia
SR leukemia = system: SR leukemia
SK-MEL-28 melanoma = system: SK-MEL-28 melanoma
DU-145 prostate = system: DU-145 prostate
SK-OV-3 ovarian = system: SK-OV-3 ovarian
NCI-H226 lung = system: NCI-H226 lung
ACHN renal = system: ACHN renal
OVCAR-8 ovarian = system: OVCAR-8 ovarian
SF-268 CNS = system: SF-268 CNS
MALME-3M melanoma = system: MALME-3M melanoma
HCC-2998 colon = system: HCC-2998 colon
HL-60(TB) leukemia = system: HL-60(TB) leukemia
OVCAR-5 ovarian = system: OVCAR-5 ovarian
MOLT-4 leukemia = system: MOLT-4 leukemia
786-0 renal = system: 786-0 renal
SW-620 colon = system: SW-620 colon
IGROV1 ovarian = system: IGROV1 ovarian
SF-539 CNS = system: SF-539 CNS
UACC-62 melanoma = system: UACC-62 melanoma
SK-MEL-5 melanoma = system: SK-MEL-5 melanoma
HS 578T breast = system: HS 578T breast
HCT-116 colon = system: HCT-116 colon
A498 renal = system: A498 renal
UACC-257 melanoma = system: UACC-257 melanoma
RXF 393 renal = system: RXF 393 renal

Molecule O=C(CCl)Nc1cc(O)c2c(c1)C(=O)c1cccc(O)c1C2=O has a GI50 (CCRF-CEM leukemia) of 314 nM, a TGI (CCRF-CEM leukemia) of 3240 nM and a GI50 (MDA-MB-435) of 1950 nM. The TGI (MDA-MB-435) was 4720 nM, the GI50 (SN12C renal) was 680 nM and the TGI (SN12C renal) was 1980 nM. For the same molecule, the GI50 (SNB-19 CNS) was 1870 nM, the TGI (SNB-19 CNS) was 4150 nM and the GI50 (MCF7 breast) was 725 nM. It also gave a TGI (MCF7 breast) of 2610 nM, a GI50 (NCI-H460 lung) of 1790 nM and a TGI (NCI-H460 lung) of 3920 nM. The GI50 (BT-549 breast) was 1240 nM, the TGI (BT-549 breast) was 3300 nM and the GI50 (MDA-MB-231 breast) was 1910 nM. The TGI (MDA-MB-231 breast) was 5880 nM, the GI50 (SF-295 CNS) was 2280 nM and the TGI (SF-295 CNS) was 7690 nM. The GI50 (T-47D breast) was 1190 nM, the TGI (T-47D breast) was 3610 nM and the GI50 (UO-31 renal) was 1390 nM. The TGI (UO-31 renal) was 2710 nM, the GI50 (HOP-92 NSCLC) was 1790 nM and the TGI (HOP-92 NSCLC) was 3630 nM. For the same molecule, the GI50 (COLO 205 colon) was 1550 nM, the TGI (COLO 205 colon) was 3350 nM and the GI50 (HT29 colon) was 1990 nM. It also gave a TGI (HT29 colon) of 3890 nM, a GI50 (U251 CNS) of 1630 nM and a TGI (U251 CNS) of 3180 nM. The GI50 (HCT-15 colon) was 620 nM, the TGI (HCT-15 colon) was 2010 nM and the GI50 (OVCAR-3 ovarian) was 1230 nM. The TGI (OVCAR-3 ovarian) was 2490 nM, the GI50 (A549 NSCLC) was 7440 nM and the TGI (A549 NSCLC) was 48500 nM. The GI50 (OVCAR-4 ovarian) was 1960 nM, the TGI (OVCAR-4 ovarian) was 7230 nM and the GI50 (PC-3 prostate) was 1570 nM. The TGI (PC-3 prostate) was 3950 nM, the GI50 (NCI-H23 lung) was 1130 nM and the TGI (NCI-H23 lung) was 3450 nM. It also gave a GI50 (M14 melanoma) of 1250 nM, a TGI (M14 melanoma) of 3450 nM and a GI50 (NCI/ADR-RES ovarian) of 2470 nM. It also gave a TGI (NCI/ADR-RES ovarian) of over 29200 nM, a GI50 (EKVX NSCLC) of 1770 nM and a TGI (EKVX NSCLC) of 4520 nM. It also gave a GI50 (NCI-H522 lung) of 172 nM, a TGI (NCI-H522 lung) of 384 nM and a GI50 (SK-MEL-2 melanoma) of 1490 nM. It also gave a TGI (SK-MEL-2 melanoma) of 3930 nM, a GI50 (KM12 colon) of 1740 nM and a TGI (KM12 colon) of 3400 nM. It also gave a GI50 (TK-10 renal) of 1970 nM, a TGI (TK-10 renal) of 3390 nM and a GI50 (HOP-62 NSCLC) of 1710 nM. The TGI (HOP-62 NSCLC) was 3380 nM, the GI50 (K-562 leukemia) was 353 nM and the TGI (K-562 leukemia) was 4220 nM. For the same molecule, the GI50 (LOX IMVI melanoma) was 166 nM, the TGI (LOX IMVI melanoma) was 623 nM and the GI50 (CAKI-1 renal) was 1560 nM. For the same molecule, the TGI (CAKI-1 renal) was 2930 nM, the GI50 (SNB-75 CNS) was 1210 nM and the TGI (SNB-75 CNS) was 3200 nM. It also gave a GI50 (RPMI-8226 leukemia) of 2170 nM, a TGI (RPMI-8226 leukemia) of 6390 nM and a GI50 (SR leukemia) of 346 nM. It also gave a TGI (SR leukemia) of 2860 nM, a GI50 (SK-MEL-28 melanoma) of 2790 nM and a TGI (SK-MEL-28 melanoma) of 8950 nM. It also gave a GI50 (DU-145 prostate) of 1560 nM, a TGI (DU-145 prostate) of 2940 nM and a GI50 (SK-OV-3 ovarian) of 2610 nM. It also gave a TGI (SK-OV-3 ovarian) of 18100 nM, a GI50 (NCI-H226 lung) of 1310 nM and a TGI (NCI-H226 lung) of 4930 nM. It also gave a GI50 (ACHN renal) of 1550 nM, a TGI (ACHN renal) of 2980 nM and a GI50 (OVCAR-8 ovarian) of 2090 nM. The TGI (OVCAR-8 ovarian) was 7650 nM, the GI50 (SF-268 CNS) was 1690 nM and the TGI (SF-268 CNS) was 3900 nM. The GI50 (MALME-3M melanoma) was 897 nM, the TGI (MALME-3M melanoma) was 2580 nM and the GI50 (HCC-2998 colon) was 1750 nM. The TGI (HCC-2998 colon) was 3400 nM, the GI50 (HL-60(TB) leukemia) was 2440 nM and the TGI (HL-60(TB) leukemia) was 6080 nM. The GI50 (OVCAR-5 ovarian) was 2320 nM, the TGI (OVCAR-5 ovarian) was 5190 nM and the GI50 (MOLT-4 leukemia) was 321 nM. It also gave a TGI (MOLT-4 leukemia) of 1760 nM, a GI50 (786-0 renal) of 1990 nM and a TGI (786-0 renal) of 4160 nM. The GI50 (SW-620 colon) was 1100 nM, the TGI (SW-620 colon) was 3950 nM and the GI50 (IGROV1 ovarian) was 942 nM. It also gave a TGI (IGROV1 ovarian) of 3130 nM, a GI50 (SF-539 CNS) of 2290 nM and a TGI (SF-539 CNS) of 6600 nM. For the same molecule, the GI50 (UACC-62 melanoma) was 1470 nM, the TGI (UACC-62 melanoma) was 3840 nM and the GI50 (SK-MEL-5 melanoma) was 549 nM. It also gave a TGI (SK-MEL-5 melanoma) of 1610 nM, a GI50 (HS 578T breast) of 2460 nM and a TGI (HS 578T breast) of 10600 nM. It also gave a GI50 (HCT-116 colon) of 646 nM, a TGI (HCT-116 colon) of 2120 nM and a GI50 (A498 renal) of 3170 nM. It also gave a TGI (A498 renal) of 36600 nM, a GI50 (UACC-257 melanoma) of 2520 nM and a TGI (UACC-257 melanoma) of 6410 nM. It also gave a GI50 (RXF 393 renal) of 1720 nM and a TGI (RXF 393 renal) of 3500 nM.
